pIC50: −log10 of the molar value. Where two headings read alike, the source gives them in different places.
Legend:
Type in all cases: biochemical
[1] = biological target: T1, DYRK1A (Homo sapiens, UniProt Q13627); experiment: Inhibition test on activity of DYRK family, mobility shift assay (MSA): DYRK1A
T1 construct: purchased Carna Biosciences, Inc. 04-130
Procedure: (§1) [Inhibition Test on Activity of DYRK Family (DYRK1A, DYRK1B, DYRK2, and DYRK3)]
(§2) The kinase activity was measured by mobility shift assay (MSA) method using QuickScout Screening Assist™ MSA (commercially available kit manufactured by Carna Biosciences, Inc.). The substrate of the kinase reaction used was an FITC-labeled DYRKtide peptide included in the kit. An assay buffer [20 mM HEPES, 0.01% Triton X-100™, 2 mM dithiothreitol, pH 7.5]was used to create a substrate mixture solution with a substrate (4 μM), MgCl2(20 mM), and ATP (DYRK1A: 100 μM; DYRK1B: 200 μM; DYRK2: 40 μM; and DYRK3: 20 μM). In addition, kinases (DYRK1A: manufactured by Carna Biosciences, Inc., Cat. No. 04-130; DYRK1B: manufactured by Carna Biosciences, Inc., Cat. No. 04-131; DYRK2; manufactured by Carna Biosciences, Inc., Cat. No. 04-132; and DYRK3; manufactured by Carna Biosciences, Inc., Cat. No. 04-133) were diluted with the assay buffer to prepare enzyme solutions (DYRK1A: 0.2 ng/μL; DYRK1B: 0.08 ng/μL; DYRK2: 0.04 ng/μL; and DYRK3: 0.25 ng/μL). The 10 mM solution of the test compound in DMSO was further diluted with DMSO to 10 levels of the concentration (0.00003 mM, 0.0001 mM, 0.0003 mM, 0.001 mM, 0.003 mM, 0.01 mM, 0.03 mM, 0.1 mM, 0.3 mM, and 1 mM), each of which was subjected to 25-fold dilution with the assay buffer to obtain a drug solution (4% DMSO solution). 5 μL of the drug solution or a control solution (4% DMSO-assay buffer), 5 μL of the substrate mixture solution, and 10 μL of the enzyme solution were mixed in the wells of a polypropylene 384-well plate and allowed to react at room temperature for 1 hour, and then the reaction was quenched by adding 60 μL of the termination buffer included in the kit. Subsequently, the quantities of the substrates (S) and the phosphorylated substrate (P) in the reaction solution were measured using LabChip EZ Reader II system (manufactured by Caliper Life Sciences) according to the protocol of the assay kit.
(§3) The heights of the peaks of the “substrate” and the “phosphorylated substrate” were expressed as S and P, respectively, and a blank containing the assay buffer instead of the enzyme solution was also measured.
(§4) The inhibition rate (%) of the test compound was calculated according to the following equation:
(§5) Inhibition rate (%)=(1−(C−A)/(B−A))×100 • wherein, A, B, and C represent P/(P+S) of the blank well, P/(P+S) of the control solution well, and P/(P+S) of the compound-containing well, respectively.
(§6) The IC50 value was calculated via a regression analysis of the inhibition rate and the test compound concentration (logarithmic value).

[2] = biological target: T2, DYRK2 (Homo sapiens, UniProt Q92630); experiment: Inhibition test on activity of DYRK family, mobility shift assay (MSA): DYRK2
T2 construct: purchased Carna Biosciences, Inc. 04-132
T2 sequence (Q92630 74-601 limits assumed): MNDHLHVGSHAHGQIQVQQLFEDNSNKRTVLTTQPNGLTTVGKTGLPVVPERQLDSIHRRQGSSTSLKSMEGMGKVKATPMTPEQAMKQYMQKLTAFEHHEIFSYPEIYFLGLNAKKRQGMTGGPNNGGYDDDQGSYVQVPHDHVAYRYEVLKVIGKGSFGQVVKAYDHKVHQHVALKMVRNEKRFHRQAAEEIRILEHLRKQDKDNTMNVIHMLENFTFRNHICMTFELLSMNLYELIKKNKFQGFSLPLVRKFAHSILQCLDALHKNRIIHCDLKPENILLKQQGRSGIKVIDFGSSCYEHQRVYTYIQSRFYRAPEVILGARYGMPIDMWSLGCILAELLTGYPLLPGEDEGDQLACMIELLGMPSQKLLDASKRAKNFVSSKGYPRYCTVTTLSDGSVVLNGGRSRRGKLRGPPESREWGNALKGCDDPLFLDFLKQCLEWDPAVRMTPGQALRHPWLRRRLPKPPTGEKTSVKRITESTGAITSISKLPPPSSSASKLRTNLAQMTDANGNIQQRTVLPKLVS
Procedure: as §1, §2, §3, §4, §5, §6
(§7) The inhibiting activities of representative compounds of the present invention are shown against DYRK1A, DYRK1B, DYRK2, and DYRK3 in Tables.

[3] = biological target: T3, DYRK3 (Homo sapiens, UniProt O43781); experiment: Inhibition test on activity of DYRK family, mobility shift assay (MSA): DYRK3
T3 construct: purchased Carna Biosciences, Inc. 04-133
T3 sequence (O43781 1-568 isoform O43781-2): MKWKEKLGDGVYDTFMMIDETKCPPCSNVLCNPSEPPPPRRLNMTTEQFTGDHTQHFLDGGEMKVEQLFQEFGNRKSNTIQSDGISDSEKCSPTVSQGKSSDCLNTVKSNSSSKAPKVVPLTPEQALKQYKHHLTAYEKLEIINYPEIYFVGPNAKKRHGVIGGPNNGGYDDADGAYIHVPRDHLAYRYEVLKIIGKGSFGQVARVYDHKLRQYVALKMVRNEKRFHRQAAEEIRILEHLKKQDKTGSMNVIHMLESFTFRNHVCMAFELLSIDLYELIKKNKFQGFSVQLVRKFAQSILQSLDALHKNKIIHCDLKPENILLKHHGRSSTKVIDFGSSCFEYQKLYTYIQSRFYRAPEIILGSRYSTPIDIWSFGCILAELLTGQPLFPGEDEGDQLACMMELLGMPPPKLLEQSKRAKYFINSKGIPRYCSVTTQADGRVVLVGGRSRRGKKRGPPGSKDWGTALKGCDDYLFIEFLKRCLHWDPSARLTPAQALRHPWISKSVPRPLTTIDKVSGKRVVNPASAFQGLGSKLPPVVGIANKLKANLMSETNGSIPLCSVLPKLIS
Procedure: as §1, §2, §3, §4, §5, §6, §7

[4] = MSA, FITC-labeled DYRKtide peptide, ATP 100 μM, read-out: Inhibitory activity DYRK 1A (IC50 class)
[5] = MSA, FITC-labeled DYRKtide peptide, ATP 40 μM, read-out: Inhibitory activity DYRK 2 (IC50 class)
[6] = MSA, FITC-labeled DYRKtide peptide, ATP 20 μM, read-out: Inhibitory activity DYRK 3 (IC50 class)
[7] = read-out: Inhibitory activity DYRK 1A
[8] = read-out: Inhibitory activity DYRK 2
[9] = read-out: Inhibitory activity DYRK 3

Compound	pIC50 [1, 4]	pIC50 [2, 5]	pIC50 [3, 6]	pIC50 [1, 7]	pIC50 [2, 8]	pIC50 [3, 9]
O=C1N[C@H]2CCN(C3COC3)C[C@H]2N1c1nc2c3c(ccc2s1)OCO3 (racemic) [Example 81, rac-(3aR,7aS)-3-(2H-[1,3]dioxolo[4,5-e][1,3]benzothiazol-7-yl)-5-(oxetan-3-yl)octahydro-2H-imidazo[4,5-c]pyridin-2-one]	7.00 to 8.00	≤ 6.00	≤ 6.00	–	–	–
CN1CCC[C@@H]2NC(=O)N(c3nc4c5c(ccc4s3)OCO5)[C@@H]2C1 (racemic) [Example 85, rac-(3aR,8aS)-3-(2H-[1,3]dioxolo[4,5-e][1,3]benzothiazol-7-yl)-5-methyloctahydroimidazo[4,5-c]azepin-2(1H)-one]	7.00 to 8.00	≤ 6.00	≤ 6.00	–	–	–
C#CCN1CC[C@@H]2NC(=O)N(c3nc4c5c(ccc4s3)OCC5)[C@@H]2C1 (racemic) [Example 99, rac-(3aR,7aS)-3-(7,8-dihydrofuro[3,2-e][1,3]benzothiazol-2-yl)-5-(2-propyn-1-yl)octahydro-2H-imidazo[4,5-c]pyridin-2-one]	–	–	–	> 8.00	6.00 to 7.00	6.00 to 7.00
N#CCN1C[C@@H]2NC(=O)N(c3nc4c5c(ccc4s3)OCC5)[C@@H]2C1 (racemic) [Example 103, rac-[(3aR,6aS)-1-(7,8-dihydrofuro[3,2-e][1,3]benzothiazol-2-yl)-2-oxohexahydropyrrolo[3,4-d]imidazol-5(1H)-yl]acetonitrile]	–	–	–	7.00 to 8.00	≤ 6.00	6.00 to 7.00
O=C1N[C@H]2CCN(CC(F)F)C[C@H]2N1c1nc2c3c(ccc2s1)OCC3 (racemic) [Example 108, rac-(3aR,7aS)-5-(2,2-difluoroethyl)-3-(7,8-dihydrofuro[3,2-e][1,3]benzothiazol-2-yl)octahydro-2H-imidazo[4,5-c]pyridin-2-one]	–	–	–	7.00 to 8.00	≤ 6.00	≤ 6.00
O=C1N[C@H]2CCOC[C@H]2N1c1nc2c3c(ccc2s1)OCC3 (racemic) [Example 120, rac-(3aR,7aR)-3-(7,8-dihydrofuro[3,2-e][1,3]benzothiazol-2-yl)hexahydropyrano[3,4-d]imidazol-2(3H)-one]	–	–	–	7.00 to 8.00	6.00 to 7.00	6.00 to 7.00
O=C1N[C@H]2CCNC[C@H]2N1c1nc2c3c(ccc2s1)OCC3 (relative stereo) [Example 1, cis-3-(7,8-Dihydrofuro[3,2-e][1,3]benzothiazol-2-yl)octahydro-2H-imidazo[4,5-c]pyridin-2-one]	7.00 to 8.00	≤ 6.00	6.00 to 7.00	–	–	–
CC(C)N1CC[C@H]2NC(=O)N(c3nc4c5c(ccc4s3)OCC5)[C@H]2C1 (relative stereo) [Example 15, cis-3-(7,8-dihydrofuro[3,2-e][1,3]benzothiazol-2-yl)-5-(propan-2-yl)octahydro-2H-imidazo[4,5-c]pyridin-2-one]	7.00 to 8.00	≤ 6.00	≤ 6.00	–	–	–

The next lines start with the values.

pIC50 [1, 4]	pIC50 [2, 5]	pIC50 [3, 6]	pIC50 [1, 7]	pIC50 [2, 8]	pIC50 [3, 9]	Compound
7.00 to 8.00	≤ 6.00	≤ 6.00	–	–	–	O=C1N[C@H]2CCCN(C3COC3)C[C@H]2N1c1nc2c3c(ccc2s1)OCO3 (racemic) [Example 86, rac-(3aR,8aS)-3-(2H-[1,3]dioxolo[4,5-e][1,3]benzothiazol-7-yl)-5-(oxetan-3-yl)octahydroimidazo[4,5-c]azepin-2(1H)-one]
–	–	–	> 8.00	≤ 6.00	≤ 6.00	O=C1N[C@H]2CCN(C3CC3)C[C@H]2N1c1nc2c3c(ccc2s1)OCC3 (racemic) [Example 98, rac-(3aR,7aS)-5-cyclopropyl-3-(7,8-dihydrofuro[3,2-e][1,3]benzothiazol-2-yl)octahydro-2H-imidazo[4,5-c]pyridin-2-one]
–	–	–	7.00 to 8.00	≤ 6.00	6.00 to 7.00	C#CCN1C[C@@H]2NC(=O)N(c3nc4c5c(ccc4s3)OCC5)[C@@H]2C1 (racemic) [Example 102, rac-(3aR,6aS)-1-(7,8-dihydrofuro[3,2-e][1,3]benzothiazol-2-yl)-5-(2-propyn-1-yl)hexahydropyrrolo[3,4-d]imidazol-2(1H)-one]
–	–	–	> 8.00	6.00 to 7.00	6.00 to 7.00	O=C1N[C@H]2CCCN(C3CC3)C[C@H]2N1c1nc2c3c(ccc2s1)OCC3 (racemic) [Example 104, rac-(3aR,8aS)-5-cyclopropyl-3-(7,8-dihydrofuro[3,2-e][1,3]benzothiazol-2-yl)octahydroimidazo[4,5-c]azepin-2(1H)-one]
–	–	–	7.00 to 8.00	≤ 6.00	≤ 6.00	C#CCN1CCC[C@@H]2NC(=O)N(c3nc4c5c(ccc4s3)OCC5)[C@@H]2C1 (racemic) [Example 105, rac-(3aR,8aS)-3-(7,8-dihydrofuro[3,2-e][1,3]benzothiazol-2-yl)-5-(2-propyn-1-yl)octahydroimidazo[4,5-c]azepin-2(1H)-one]
–	–	–	7.00 to 8.00	≤ 6.00	6.00 to 7.00	N#CCN1CCC[C@@H]2NC(=O)N(c3nc4c5c(ccc4s3)OCC5)[C@@H]2C1 (racemic) [Example 106, rac-[(3aR,8aS)-3-(7,8-dihydrofuro[3,2-e][1,3]benzothiazol-2-yl)-2-oxooctahydroimidazo[4,5-c]azepin-5(1H)-yl]acetonitrile]
–	–	–	7.00 to 8.00	≤ 6.00	≤ 6.00	O=C1N[C@H]2CCN(CC(F)(F)F)C[C@H]2N1c1nc2c3c(ccc2s1)OCC3 (racemic) [Example 107, rac-(3aR,7aS)-3-(7,8-dihydrofuro[3,2-e][1,3]benzothiazol-2-yl)-5-(2,2,2-trifluoroethyl)octahydro-2H-imidazo[4,5-c]pyridin-2-one]
–	–	–	7.00 to 8.00	6.00 to 7.00	6.00 to 7.00	O=C1N[C@H]2COCC[C@H]2N1c1nc2c3c(ccc2s1)OCC3 (racemic) [Example 121, rac-(3aR,7aR)-1-(7,8-dihydrofuro[3,2-e][1,3]benzothiazol-2-yl)hexahydropyrano[3,4-d]imidazol-2(3H)-one]
